≈ marks a conversion by molar mass, not a printed value.
Experiments:
A549 = test: Cytotoxicity against human A549 cells after 7 days by MTT assay; type: functional; settings: A549, 168 h, read-out: ED50 (the source's name)
HT-29 = test: Cytotoxicity against human HT-29 cells after 7 days by MTT assay; type: functional; settings: HT-29, 168 h, read-out: ED50 (the source's name)
[1] = Toxicity against brine shrimp; type: organism-based; settings: artemia, in vivo
MCF7 = test: Cytotoxicity against human MCF7 cells after 7 days by MTT assay; type: functional; settings: MCF7, 168 h, read-out: ED50 (the source's name)

SMILES	EC50 (A549) [µg/mL]	EC50 (HT-29) [µg/mL]	LC50 [1] [µg/mL]	EC50 (MCF7) [µg/mL]
CCCCCCCCCCCC[C@@H](O)[C@H]1CC[C@H]([C@H](O)CC[C@H]2C[C@@H](CCCCC[C@@H](O)CC3=C[C@H](C)OC3=O)OC(C)(C)O2)O1	0.00367 (≈ 0.00562 µM)	0.508 (≈ 0.778 µM)	0.206 (≈ 0.315 µM)	0.165 (≈ 0.253 µM)
CCCCCCCCCCCC[C@H](O)[C@H]1CC[C@H]([C@H](O)CC[C@H]2C[C@@H](CCCCC[C@@H](O)CC3=C[C@H](C)OC3=O)OC(C)(C)O2)O1	0.00718 (≈ 0.011 µM)	> 1	0.266 (≈ 0.407 µM)	0.878 (≈ 1.34 µM)
CCCCCCCCCCCC[C@@H](O)[C@H]1CC[C@H]([C@H](O)CC[C@H](O)C[C@H](O)CCCCC[C@@H](O)CC2=C[C@H](C)OC2=O)O1 [MURICATOCIN A]	0.0755 (≈ 0.123 µM)	1.56 (≈ 2.55 µM)	0.699 (≈ 1.14 µM)	0.123 (≈ 0.201 µM)
CCCCCCCCCCCC[C@H](O)[C@H]1CC[C@H]([C@H](O)CC[C@H](O)C[C@H](O)CCCCC[C@@H](O)CC2=C[C@H](C)OC2=O)O1 [MURICATOCIN B]	0.334 (≈ 0.545 µM)	1.66 (≈ 2.71 µM)	0.557 (≈ 0.909 µM)	0.103 (≈ 0.168 µM)
COc1cccc2c1C(=O)c1c(O)c3c(c(O)c1C2=O)C[C@@](O)(C(=O)CO)C[C@@H]3O[C@H]1C[C@H](N)[C@H](O)[C@H](C)O1 [DOXORUBICIN]	0.00356 (≈ 0.00655 µM)	–	–	0.142 (≈ 0.261 µM)

Source: ChEMBL document CHEMBL1159260, “Muricatocins A and B, two new bioactive monotetrahydrofuran Annonaceous acetogenins from the leaves of Annona muricata” (J Nat Prod, 1995)
